From patent publication US11964974B1, “Imidazo[1,2-c]pyrido[3,4-e]pyrimidine-3-carboxylic acids as CK2 inhibitors” (KING FAISAL UNIVERSITY, priority 2024, dated 2024)
pIC50: −log10 of the molar value.

Tests used:
PC3 (prostate) = assay: In vitro cytotoxic activity assay (MTT), PC3; type: cell-based; conditions: Homo sapiens, Prostate cell; PC3 (prostate) cells, exposed for 96 hours; read-out: Cytotoxicity activity IC50
Procedure: (§1) Compounds 1-16 were screened for their in vitro cytotoxic activity utilizing a 3-(4,5-dimethyl-thiazol-2-yl)-2,5-diphenyltetrazolium bromide (MTT) assay against selected cancer human cell lines consisting of PC3 (prostate), HCT116 (colon), A375 (melanoma), H1299 (lung), MIAPaCa-2 (pancreas), HL60 (leukemia), MCF7 (breast), MDA-MB-231 (breast) (T. Mosmann, J. Immunol. Meth., 1983, 65, 55-63). The cells were cultured at 37° C. in RMPI1640 medium supplemented with 10% fetal bovine serum, 50 IU/mL penicillin, and 50 μg/mL streptomycin in a 5% CO2 incubator. All cells were sub-cultured 3 times/week by trypsinisation. Viable cells were seeded and allowed to adhere for 12 hours before a test drug was added in 96-well plates at an initial density of 1.0×10^5 cells/mL. Tumor cell lines were separately exposed to various concentrations of the tested compounds followed by incubation at a temperature of 37° C. during 96 hours inside a medium of fresh RMPI 1640. Cells were subsequently incubated at 37° C. using MTT at 0.5 mg/mL during 4 hours. After removal of supernatant, formazan crystals were dissolved in isopropanol and the optical density was measured at 570 nm. CX-4945 was used as a positive control.

HCT116 (colon) = assay: In vitro cytotoxic activity assay (MTT), HCT116; type: cell-based; conditions: Homo sapiens, HCT-116; HCT116 (colon) cells, exposed for 96 hours; read-out: Cytotoxicity activity IC50
Procedure: as §1

A375 (melanoma) = assay: In vitro cytotoxic activity assay (MTT), A375; type: cell-based; conditions: Homo sapiens, A-375; A375 (melanoma) cells, exposed for 96 hours; read-out: Cytotoxicity activity IC50
Procedure: as §1

H1299 (lung) = assay: In vitro cytotoxic activity assay (MTT), H1299; type: cell-based; conditions: Homo sapiens, NCI-H1299; H1299 (lung) cells, exposed for 96 hours; read-out: Cytotoxicity activity IC50
Procedure: as §1

MIAPaCa-2 (pancreas) = assay: In vitro cytotoxic activity assay (MTT), MIAPaCa-2; type: cell-based; conditions: Homo sapiens, MIA PaCa-2; MIAPaCa-2 (pancreas) cells, exposed for 96 hours; read-out: Cytotoxicity activity IC50
Procedure: as §1

HL60 (leukemia) = assay: In vitro cytotoxic activity assay (MTT), HL60; type: cell-based; conditions: Homo sapiens, HL-60; HL60 (leukemia) cells, exposed for 96 hours; read-out: Cytotoxicity activity IC50
Procedure: as §1

MCF7 (breast) = assay: In vitro cytotoxic activity assay (MTT), MCF7; type: cell-based; conditions: Homo sapiens; MCF7 (breast) cells, exposed for 96 hours; read-out: Cytotoxicity activity IC50
Procedure: as §1

MDA-MB-231 (breast) = assay: In vitro cytotoxic activity assay (MTT), MDA-MB-231; type: cell-based; conditions: Homo sapiens; MDA-MB-231 (breast) cells, exposed for 96 hours; read-out: Cytotoxicity activity IC50
Procedure: as §1

[1] = target: T1, recombinant human CK2 (RRββ-holoenzyme) (Homo sapiens, UniProt P68400); assay: CK2 Kinase Assay (radiometric, [γ-33P]ATP); type: biochemical; conditions: final ATP concentration 15 μM, 10 min at 30° C.; read-out: protein kinase CK2 inhibition IC50
T1 construct: purchased Millipore
Procedure: CK2 Kinase Assay was conducted using the protocol as described in Pierre F. et al; J. Med. Chem. 2011, 54, 635-654. The tested compounds in aqueous solution were added at a volume of 10 μL to a reaction mixture comprising 10 μL of assay dilution buffer (ADB; 20 mM MOPS, pH 7.2, 25 mM β-glycerol phosphate, 5 mM EGTA, 1 mM sodium orthovanadate, and 1 mM dithiothreitol), 10 μL of substrate peptide (RRRDDDSDDD, dissolved in ADB at a concentration of 1 mM), 10 μL of recombinant human CK2 (RRββ-holoenzyme, 25 ng dissolved in ADB; Millipore). Reactions were initiated by the addition of 10 μL of ATP solution (90% 75 mMMgCl2, 75 μM ATP (final ATP concentration: 15 μM) dissolved in ADB; 10% [γ-33P] ATP (stock 1 mCi/100 μL; 3000 Ci/mmol (Perkin-Elmer) and maintained for 10 min at 30° C. The reactions were quenched with 100 μL of 0.75% phosphoric acid and then transferred to and filtered through a phosphor cellulose filter plate (Millipore). After washing each well five times with 0.75% phosphoric acid, the plate was dried under vacuum for 5 min and, following the addition of 15 μL of scintillation fluid to each well, the residual radioactivity was measured using a Wallac luminescence counter. The IC50 values were derived from eight concentrations of test inhibitors.

T1 sequence (P68400 whole entry): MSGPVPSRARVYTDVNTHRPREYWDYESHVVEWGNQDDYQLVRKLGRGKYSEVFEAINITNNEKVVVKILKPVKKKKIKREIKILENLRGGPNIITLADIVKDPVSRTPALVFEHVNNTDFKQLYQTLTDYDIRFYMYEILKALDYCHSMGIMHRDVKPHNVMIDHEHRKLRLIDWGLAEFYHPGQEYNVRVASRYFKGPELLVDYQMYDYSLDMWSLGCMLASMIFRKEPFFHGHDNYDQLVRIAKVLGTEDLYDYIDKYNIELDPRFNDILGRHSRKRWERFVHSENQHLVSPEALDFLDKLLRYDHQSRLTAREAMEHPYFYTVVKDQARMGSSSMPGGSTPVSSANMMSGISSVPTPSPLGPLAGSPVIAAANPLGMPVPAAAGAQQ
T1 sequence (P67870 whole entry partner): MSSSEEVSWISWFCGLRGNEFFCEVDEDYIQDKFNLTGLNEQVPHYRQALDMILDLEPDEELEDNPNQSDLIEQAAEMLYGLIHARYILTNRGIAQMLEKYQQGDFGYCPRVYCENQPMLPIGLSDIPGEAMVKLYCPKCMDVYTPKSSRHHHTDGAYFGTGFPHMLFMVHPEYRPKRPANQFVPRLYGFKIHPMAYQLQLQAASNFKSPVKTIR

Q: O=C(O)c1cnc2c3cnccc3nc(Nc3cccc(Cl)c3)n12 [Compound 1, 5-((3-chlorophenyl)amino)imidazo[1,2-c]pyrido[3,4-e]pyrimidine-3-carboxylic acid] was tested. Which pIC50 (PC3 (prostate)) did it give?
A: 5.74

Q: What about the pIC50 (HCT116 (colon)) of the same compound?
A: 5.49

Q: And the pIC50 (A375 (melanoma))?
A: 5.25

Q: What about the pIC50 (H1299 (lung)) of the same compound?
A: 5.54

Q: And the pIC50 (MIAPaCa-2 (pancreas))?
A: 5.80

Q: What about the pIC50 (HL60 (leukemia)) of the same compound?
A: 5.17

Q: And the pIC50 (MCF7 (breast))?
A: 5.28

Q: What about the pIC50 (MDA-MB-231 (breast)) of the same compound?
A: 5.31

Q: What about the pIC50 [1] of the same compound?
A: 7.46
